Assay [1] has as its target T1, renin (Homo sapiens, UniProt P00797).
T1 sequence (P00797 67-406): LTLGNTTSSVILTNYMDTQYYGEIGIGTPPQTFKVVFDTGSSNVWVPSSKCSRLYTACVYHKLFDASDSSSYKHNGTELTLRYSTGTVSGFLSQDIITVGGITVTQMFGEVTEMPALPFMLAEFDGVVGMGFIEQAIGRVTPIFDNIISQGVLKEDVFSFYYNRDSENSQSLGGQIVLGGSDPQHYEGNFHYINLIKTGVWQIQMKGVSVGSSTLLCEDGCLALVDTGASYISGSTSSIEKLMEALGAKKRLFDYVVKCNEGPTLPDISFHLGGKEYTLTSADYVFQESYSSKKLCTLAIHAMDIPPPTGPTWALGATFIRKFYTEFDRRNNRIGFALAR
Nature of the assay: Inhibitory effect on human renin-sheep renin substrate reaction system in vitro. In kind it is biochemical. Particulars: pH 7.4, 37° C., 15 minutes, read-out: IC50 (molar concentration producing a 50% inhibition). The method, then:
Inhibitory effect on human renin-sheep renin substrate reaction system in vitro
The mixture was incubated for 15 minutes on a water bath at 37° C., and the reaction mixture was allowed to stand for 5 minutes on a water bath at 100° C. to stop the reaction. After cooling, 200 μl of the solution was taken up and the amount of angiotensin I produced by the addition of renin was determined by radioimmunoassay using renin riabead kit (DAINABOT).
The inhibitory effect was calculated by the following equation.
As a control, the same procedure as above was carried out by using 50 μl of dimethyl sulfoxide alone in place of the 50 μl of dimethyl sulfoxide solution containing an amino acid compound of the present invention. [formula]

The test system of assay [2] is plasma renin. Kind of assay: Renin inhibitory effect in plasma on common marmoset (high renin state, oral). In kind it is in vivo. Particulars: oral 30 mg/kg. The method, then:
Renin inhibitory effect in plasma on common marmoset
The experiment was carried out by using common marmoset as described in K. G. Hofbauer et al., Clinical and Experimental hypertension, Vol. A5, Nos. 7 & 8 (1983), pages 1237-1247.
Furosemide was administered orally three times to common marmoset having a lower salt diet at 15 mg per Kilogram per day every other day to create a high renin state. The experiment was carried out on the third day after the last furosemide dose.
Conscious female and male marmosets weighing 335 to 375 g were placed into small restraining chair, and by using a catheter into the femoral artery, blood collecting was carried out at intervals of 20, 40, 60, 120, 180 and 300 minutes.
Collected blood samples were centrifuged at 1200 g for 15 minutes at 4° C. Two hundred μl of the plasma was taken up and incubated for 60 minutes at 37° C., and the plasma renin activity was measured by radioimmunoassay using renin riabead kit (DAINABOT).
Compound A of this invention was dissolved in dilute hydrochloric acid, and administered orally at single dose of 30 mg/kg using catheter.

Assay [3] has as its target T1, renin. Nature of the assay: Renin inhibitory effect in a human high renin plasma. The format is biochemical. Also noted: 500 μl of human high renin plasma; from tissue; host or cells: human high renin plasma. Particulars: pH 7.0, 37° C., 60 minutes, read-out: IC50 (molar concentration producing a 50% inhibition). The method, then:
Renin inhibitory effect in a human high renin plasma
A mixture of 350 μl of a 0.5 M phosphate buffer (pH 7.0) containing 14 mM EDTA.2Na and a 0.3% neomycin sulfate, 50 μl of a 20 mM L-phenylalanyl-L-alanyl-L-proline as an angiotensin converting enzyme inhibitor and 100 μl of dimethyl sulfoxide solution containing an amino acid derivative of the present invention was added to 500 μl of human high renin plasma. Two hundred μl of the mixture was placed on an ice bath, at 4° C., and remaining mixture (800 μl ) was incubated for 60 minutes at 37° C. on a water bath. Two hundred μl of the incubated remaining mixture was chilled immediately on an ice bath, and the amount (A) of angiotensin I produced was determined by radioimmunoassay using renin riabead kit (DAINABOT).
The amount (B) of angiotensin I in the mixture placed on an ice bath at 4° C. was also determined by radioimmunoassay.
As a control, the same procedure as above was carried out by using 100 μl of dimethyl sulfoxide alone in place of 100 μl of dimethyl sulfoxide solution containing an amino acid compound of the present invention.
The net amount was estimated as the difference between A and B.
The inhibitory effect was calculated by the following equation. [formula]

Assay [4] is described as follows: Hypotensive effect in marmoset (high renin state, oral). In kind it is in vivo, common marmoset. Particulars: conscious male marmoset, oral 30 mg/kg, tail cuff, Control 89.3. The method, then: Hypotensive effect in marmoset
The experiment was carried out by using common marmoset as described in K. G. Hofbauer et al., Clinical and Experimental Hypertension, Vol. A5, Nos. 7 & 8 (1983), pages 1237-1247.
Furosemide was administered orally three times to common marmoset at 15 mg per kilogram per day every other day to create a high renin state. Blood pressure of conscious marmoset was measured on the third day after the last furosemide dose.
A conscious male marmoset weighing 460 g was placed into small restraining chair. Blood pressure was measured on the tail cuff method using pretismograph. Compound C was dissolved in dilute hydrochloric acid, and administered orally at 30 mg/kg by using a catheter.

The record followed here is patent publication US4711958A, “Morpholine containing amino acid derivatives” (priority 1986, dated 1987).

Turning to `CC(C)OC(=O)C(O)[C@H](CC1CCCCC1)NC(=O)[C@H](Cc1c[nH]cn1)NC(=O)C(CC(=O)N1CCOCC1)Cc1cccc2ccccc12` (mixture of isomers) [Compound A, (2RS, 3S)-3-{N-[2-(1-Naphthylmethyl)-3-(morpholinocarbonyl)propionyl]-L-histidyl)amino-4-cyclohexyl-2-hydroxybutyric acid isopropyl ester], the IC50 in assay [1] stood at 6.5 nM; in assay [3], 10 nM. Also, the “Inhibition percent of plasma renin activity” value came to 68.2% in assay [2] (20 minutes after administration, 3 animals); 88.1% in assay [2] (40 minutes after administration, 3 animals); 87.1% in assay [2] (60 minutes after administration, 3 animals); 88.8% in assay [2] (120 minutes after administration, 3 animals); 79.6% in assay [2] (180 minutes after administration, 3 animals); 53.4% in assay [2] (300 minutes after administration, 2 animals).
With `CC(C)CNC(=O)C(O)[C@H](CC1CCCCC1)NC(=O)[C@H](Cc1c[nH]cn1)NC(=O)C(CC(=O)N1CCOCC1)Cc1cccc2ccccc12` (mixture of isomers) [Compound B, (2RS, 3S)-3-{N-[2-(1-Naphthylmethyl)-3-(morpholinocarbonyl)propionyl]-L-histidyl}amino-4-cyclohexyl-2-hydroxy-N-isobutylbutyramide], the IC50 in assay [1] came out at 290 nM; in assay [3], 260 nM.
Regarding `O=C(N[C@@H](Cc1c[nH]cn1)C(=O)N[C@@H](CC1CCCCC1)C(O)C(=O)OC1CCCC1)C(CC(=O)N1CCOCC1)Cc1cccc2ccccc12` (mixture of isomers) [Compound C, (2RS, 3S)-3-{N-[2-(1-Naphthylmethyl)-3-(morpholinocarbonyl)propionyl]-L-histidyl)amino-4-cyclohexyl-2-hydroxybutyric acid cyclopentyl ester], the Blood pressure in assay [4] (0.5 hours after administration) worked out at 78.0 mmHg; in assay [4] (1 hour after administration), 73.3 mmHg; in assay [4] (2 hours after administration), 66.0 mmHg; in assay [4] (3 hours after administration), 71.0 mmHg; in assay [4] (5 hours after administration), 71.8 mmHg; in assay [4] (7 hours after administration) it was 71.7 mmHg. The IC50 in assay [1] worked out at 2.5 nM; in assay [3], 6.8 nM.
For the molecule `O=C(N[C@@H](Cc1c[nH]cn1)C(=O)N[C@@H](CC1CCCCC1)C(O)C(=O)OC1CCCCC1)C(CC(=O)N1CCOCC1)Cc1cccc2ccccc12` (mixture of isomers) [Compound E, (2RS, 3S)-3-{N-[2-(1-Naphthylmethyl)-3-(morpholinocarbonyl)propionyl]-L-histidyl}amino-4-cyclohexyl-2-hydroxybutyric acid cyclohexyl ester], the IC50 came to 6.6 nM in assay [1] and 30 nM in assay [3].
Regarding `O=C(N[C@@H](Cc1c[nH]cn1)C(=O)N[C@@H](CC1CCCCC1)C(O)C(=O)N1CCOCC1)C(CC(=O)N1CCOCC1)Cc1cccc2ccccc12` (mixture of isomers) [Compound F, 4-[(2RS, 3S)-3-{N-[2-(1-Naphthylmethyl)-3-(morpholinocarbonyl)propionyl]-L-histidyl}amino-4-cyclohexyl-2-hydroxybutyryl]morpholine], the IC50 was 370 nM in assay [1] and 130 nM in assay [3].
Turning to `O=C(N[C@@H](Cc1c[nH]cn1)C(=O)N[C@@H](CC1CCCCC1)C(O)C(=O)OC(CF)CF)C(CC(=O)N1CCOCC1)Cc1cccc2ccccc12` (mixture of isomers) [Compound G, (2RS, 3S)-3-{N-[2-(1-Naphthylmethyl)-3-(morpholinocarbonyl)propionyl]-L-histidyl}amino-4-cyclohexyl-2-hydroxybutyric acid 1,3-difluoro-2-propyl ester], the IC50 was found to be 2.9 nM in assay [1] and 4.1 nM in assay [3].
For `CC(C)OC(=O)[C@H](O)[C@H](CC1CCCCC1)NC(=O)[C@H](Cc1c[nH]cn1)NC(=O)C(CC(=O)N1CCOCC1)Cc1cccc2ccccc12` (stereo partly drawn) [Compound D, (2R, 3S)-3-{N-[2-(1-Naphthylmethyl)-3-(morpholinocarbonyl)propionyl]-L-histidyl}amino-4-cyclohexyl-2-hydroxybutyric acid isopropyl ester], in that order: 2.4 nM and 4.7 nM.
